{"source": "ChEMBL document CHEMBL4725412", "about": "“Augmenting the Activity of Macrolide Adjuvants against Acinetobacter baumannii” (2020)", "type_in_all_cases": "functional", "key": {"[1]": {"test_system": "Acinetobacter baumannii", "assay": "Antibacterial activity against Acinetobacter baumannii 5197 assessed as reduction in microbial growth incubated for 16 hrs by broth microdilution method"}, "[2]": {"test_system": "Acinetobacter baumannii", "assay": "Potentiation of clarithromycin-induced antibacterial activity against Acinetobacter baumannii 4490 assessed as fold reduction in clarithromycin MIC at 7.5 uM incubated for 16 hrs by broth microdilution method"}, "[3]": {"test_system": "Acinetobacter baumannii", "assay": "Antibacterial activity against Acinetobacter baumannii 4026 assessed as reduction in microbial growth incubated for 16 hrs by broth microdilution method"}, "[4]": {"test_system": "Acinetobacter baumannii", "assay": "Potentiation of clarithromycin-induced antibacterial activity against Acinetobacter baumannii 4991 assessed as fold reduction in clarithromycin MIC at 7.5 uM incubated for 16 hrs by broth microdilution method"}, "[5]": {"test_system": "Acinetobacter baumannii", "assay": "Antibacterial activity against Acinetobacter baumannii 8967 assessed as reduction in microbial growth incubated for 16 hrs by broth microdilution method"}, "[6]": {"test_system": "Acinetobacter baumannii", "assay": "Potentiation of clarithromycin-induced antibacterial activity against Acinetobacter baumannii AB5075 assessed as clarithromycin MIC at 15 uM incubated for 16 hrs by broth microdilution method (reference value: […] ug/ml)"}, "[7]": {"test_system": "Acinetobacter baumannii", "assay": "Potentiation of clarithromycin-induced antibacterial activity against Acinetobacter baumannii 4448 assessed as fold reduction in clarithromycin MIC at 7.5 uM incubated for 16 hrs by broth microdilution method"}, "[8]": {"test_system": "Acinetobacter baumannii", "assay": "Potentiation of clarithromycin-induced antibacterial activity against Acinetobacter baumannii 8967 assessed as fold reduction in clarithromycin MIC at 7.5 uM incubated for 16 hrs by broth microdilution method"}, "[9]": {"test_system": "Acinetobacter baumannii", "assay": "Potentiation of clarithromycin-induced antibacterial activity against Acinetobacter baumannii 4498 assessed as fold reduction in clarithromycin MIC at 7.5 uM incubated for 16 hrs by broth microdilution method"}, "[10]": {"test_system": "Acinetobacter baumannii", "assay": "Potentiation of clarithromycin-induced antibacterial activity against Acinetobacter baumannii 4795 assessed as fold reduction in clarithromycin MIC at 7.5 uM incubated for 16 hrs by broth microdilution method"}}}
{"smiles": "Cl.Nc1nc(-c2ccc(NC(=O)Nc3cc(Br)cc(Br)c3)cc2)c[nH]1", "values": [{"measurement": "MIC", "setting": "[1]", "result": 25, "unit": "µM"}, {"measurement": "fold change (FC)", "setting": "[2]", "result": 16}, {"measurement": "MIC", "setting": "[3]", "result": 25, "unit": "µM"}, {"measurement": "fold change (FC)", "setting": "[4]", "result": 16}, {"measurement": "MIC", "setting": "[5]", "result": 25, "unit": "µM"}, {"measurement": "MIC", "setting": "[6]", "result": 0.125, "unit": "µg/mL"}, {"measurement": "fold change (FC)", "setting": "[7]", "result": 16}, {"measurement": "fold change (FC)", "setting": "[8]", "result": 16}, {"measurement": "fold change (FC)", "setting": "[9]", "result": 16}, {"measurement": "fold change (FC)", "setting": "[10]", "result": 16}]}
